# In ChEMBL document CHEMBL1123509, “In vitro inhibition of estrogen sulfoconjugation by some 2- and 4-substituted estra-1,3,5(10)-trien-17 beta-ols1a” (J Med Chem, 1986):
# Target: T1, Estrogen sulfotransferase (Sus scrofa, UniProt Q95MF8)
# T1 sequence (Q95MF8 whole entry): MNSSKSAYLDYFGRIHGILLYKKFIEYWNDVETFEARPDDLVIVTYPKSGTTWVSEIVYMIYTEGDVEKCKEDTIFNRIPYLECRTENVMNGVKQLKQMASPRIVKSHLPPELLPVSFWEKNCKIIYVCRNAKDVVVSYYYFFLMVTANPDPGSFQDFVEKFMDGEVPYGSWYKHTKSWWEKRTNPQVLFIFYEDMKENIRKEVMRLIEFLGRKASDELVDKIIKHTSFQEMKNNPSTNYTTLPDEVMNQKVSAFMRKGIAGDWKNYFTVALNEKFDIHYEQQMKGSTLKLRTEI
# Test: Compound was tested for inhibition of porcine endometrial estrogen sulfotransferase
# Settings: read-out: Ki app
row,Compound,Ki
1,C[C@]12CC[C@@H]3c4cc([N+](=O)[O-])ccc4CC[C@H]3[C@@H]1CC[C@@H]2O,9.76 µM
2,C[C@]12CC[C@@H]3c4cccc([N+](=O)[O-])c4CC[C@H]3[C@@H]1CC[C@@H]2O,2.43 µM
3,C[C@]12CC[C@@H]3c4cc(F)ccc4CC[C@H]3[C@@H]1CCC2O (stereo not given in full),13.6 µM
4,C[C@]12CC[C@@H]3c4cccc(N)c4CC[C@H]3[C@@H]1CCC2=O,10.5 µM
5,C[C@]12CC[C@@H]3c4cc(N)ccc4CC[C@H]3[C@@H]1CCC2O (stereo not given in full),7.51 µM
6,C[C@]12CC[C@@H]3c4cccc(F)c4CC[C@H]3[C@@H]1CCC2=O,14.8 µM
7,C[C@]12CC[C@@H]3c4cccc(N)c4CC[C@H]3[C@@H]1CCC2O (stereo not given in full),11.9 µM
8,C[C@]12CC[C@@H]3c4ccccc4CC[C@H]3[C@@H]1CCC2=O,25.1 µM
9,C[C@]12CC[C@@H]3c4cccc(F)c4CC[C@H]3[C@@H]1CC[C@@H]2O,10.2 µM
10,C[C@]12CC[C@@H]3c4ccccc4CC[C@H]3[C@@H]1CC[C@@H]2O,16.3 µM
